Source: patent US4731370A, “Pyridyl ester containing 1,4-dihydropyridine derivatives and salts thereof and pharmaceutical composition containing the same” (Toyama Chemical Co., Ltd., priority 1984, dated 1988)
Where a name gives a salt, the structure may show the parent alone.

Key:
[1] = system: Thromboxane-Synthesizing Enzyme; experiment: Thromboxane-synthesizing enzyme-inhibitory activity (MDA production in platelet-rich plasma after oral dosing); format: in vivo, rat (Wistar strain); details: rat, 3 mg/kg, blood after one hour
Method: (§1) The compounds of this invention to be tested were used in the form of a hydrochloride.
To a rat (Wistar strain, male, 300-350 g, 4 heads per group) which had been starved overnight was orally administered a test compound solution, and blood was collected from the abdominal aorta using citric acid after one hour. Two milliliters of a 1×10^9 /ml platelet-rich plasma (PRP) was preincubated at 37° C. for 2 minutes. Subsequently, 0.1 ml of 10 mM sodium archidonate was added, and the resulting mixture was subjected to reaction for 6 minutes, after which indomethacin was added thereto to terminate the reaction. The reaction mixture was subjected to deproteinization treatment and reacted with thiobarbituric acid (TBA) reagent, after which the reaction mixture was subjected to extraction with 3 ml of n-butanol. The resulting extract was subjected to colorimetry (λ=532 nm) to determine the amount of malondialdehyde (MDA) produced. As to the platelet-poor plasma (PPP) obtained from the same rat as above, the same procedure as above was repeated to determine the amount of MDA produced, and the difference between the two is indicated as MDA value. Comparing with the MDA values of the control group, the MDA production-inhibition (%) was determined.
The test compounds 1-9 were adjusted to the desired concentrations with water and the test compounds 11-33 and nicardipine were adjusted to a concentration of 5 mg/ml with an aqueous solution containing 10% of each of dimethyl sulfoxide and Cremophor and then diluted with water to the desired concentrations.

[2] = system: coronary vessel (isolated guinea pig heart); experiment: Coronary vasodilating activity (isolated perfused guinea pig heart, coronary effluent); parameters: species or system guinea pig (Hartley strain); details: Langendorff perfusion, 0.1 ml into aorta, hydrochloride
Method: as §1
The heart of a guinea pig (Hartley strain, male, 500-700 g, 3 heads per group) was isolated and set in the Landendorff perfusing apparatus. About 0.5% defibrinated blood was fed to the apparatus, and the Krebs bicarbonate solution, into which a mixed gas consisting of 95% of O2 and 5% of CO2 had been bubbled was perfused over the heart, after which a 1 mg/ml solution of the test compound in an aqueous solution containing 10% by volume of dimethylsulfoxide and 10% of polyoxyethylfatty acid glyceride [Cremophor EL manufactured by Sigma] was prepared, diluted with a saline solution to the desired concentration, and then administered into the heart in an amount of 0.1 ml through the rubber tube attached to the cannula inserted retrogressively into the aorta. The vasodilating activity was determined by measuring the amount of the solution effluent from the coronary vessel after passing through the aorta by means of an electric drop counter (universal drop counter manufactured by Natsume Seisakusho) and indicated as ED50 value which is the amount necessary for the amount of the effluent solution to increase 50% as compared with those before addition of the test compound.

[3] = system: mouse pulmonary infraction model; experiment: Antithrombosis activity, mouse pulmonary infraction model, prevention of death and paralysis (0.10 ml epinephrine/collagen); format: in vivo, mouse (ICR strain); details: Mus musculus, po, 1 h, read-out: Preventive percentage of death + paralysis for 10 minutes or more
Method: as §1
According to the G. DiMinno and M. J. Silver method [J. Pharmacol. Exp. Therap., 225 (1) 57-60 (1983)], a solution of the compound to be tested was orally administered to a mouse (ICR strain, male, 4 weeks old), and 0.15 ml of a mixed solution of epinephrine (100 μM) and collagen (150 μg/ml) was intravenously administered to the mouse after one hour, after which the paralytic time was measured. Comparing the paralytic time of the control group, the paralytic time-shortening percentage due to the compound to be tested was determined. The results obtained are shown in Table 4, in which the case where the paralytic time was 15 minutes was calculated as death.
Moreover, the same experiment was repeated, except that 0.10 ml of a mixed solution of epinephrine (100 μM) and collagen (150 μg/ml) was intravenously administered to the mouse and the effect of preventing the appearance of death and a case where the paralytic time was 10 minutes or more was checked and the results thereof are shown in Table 5.
(§2) The test compounds shown in Table 4 were adjusted to the desired concentrations with water, and the test compounds shown in Table 5 were adjusted to a concentration of 5 mg/ml with an aqueous solution containing 10% by volume of each of dimethyl sulfoxide and Cremophor, and then diluted with water to the desired concentrations.

[4] = system: mouse pulmonary infraction model; experiment: Antithrombosis activity, mouse pulmonary infraction model, paralytic time-shortening (0.15 ml epinephrine/collagen); format: in vivo, mouse (ICR strain); details: 1 h, oral, challenge after one hour, 10 mice, read-out: Paralytic time-shortening percentage
Method: as §1
Comparing the paralytic time of the control group, the paralytic time-shortening percentage due to the compound to be tested was determined.
as §2

[5] = system: vertebral artery blood flow of a dog; experiment: Vertebral artery blood flow increasing activity; format: in vivo, dog (mongrel); details: i.v., amount with same activity as 1 mg/kg (i.v.) papaverine hydrochloride, ratio to papaverine hydrochloride
Method: as §1
The vertebral artery blood flow of a dog (mongrel, 12-22 kg, 2-3 heads per group) anesthetized with pentobarbital sodium (30 mg/kg, i.v.) was measured by means of an electromagnetic flow meter (MFV-2100 manufactured by Nihon Kohden Kogyo).
The test compounds 1, 3 and 10 were adjusted to a concentration of 1 mg/ml with distilled water, and then diluted with a saline solution to the desired concentrations, after which the thus diluted solutions were intravenously administered, and the test compounds 12, 15, 18, 19, 20, 24, 29, 30, 32 and 33 were formed into solutions in the same manner as in Item 1 above and then intravenously administered.

[6] = Acute toxicity, intravenous, mice; details: mouse, in vivo, mice (ICR, male, 4 weeks old, 5 per group)

| SMILES | MDA production-inhibition [1] | ED50 (amount necessary for the amount of the effluent solution to increase 50%) [2] | responders at 10 mg/kg [3] | inhibition in vivo at 10 mg/kg [4] | Effect ratio [5] | responders at 30 mg/kg [3] | inhibition in vivo at 300 mg/kg ([4]; 300 mg/kg) | LD50 [6] |
| --- | --- | --- | --- | --- | --- | --- | --- | --- |
| COC(=O)C1=C(C)NC(C)=C(C(=O)OCCN(C)Cc2ccccc2)C1c1cccc([N+](=O)[O-])c1 (stereo not shown) [Nicardipine, 3-[2-(N-benzyl-N-methylamino)ethyl]5-methyl 2,6-dimethyl-4-(3-nitrophenyl)-1,4-dihydropyridine-3,5-dicarboxylate hydrochloride, reference compound] | 2.7% | 0.042 μg/i.c. | 0% | 6.3% | 220 | – | – | – |
| C/C(=C\c1ccc(Cc2cccnc2)cc1)C(=O)O [OKY-1581, Sodium (E)-3-[4-(pyridin-3-ylmethyl)phenyl]-2-methylpropenoate, reference compound] | – | – | – | – | – | 10% | 9.5% | – |
| COC(=O)C1=C(C)NC(C)=C(C(=O)OCCN(C)C/C(C)=C/c2ccc(Cc3cccnc3)cc2)C1c1cccc([N+](=O)[O-])c1 (stereo not shown) [compound 2] | 63.2% | – | – | 84.1% | – | – | – | ≥ 30 mg/kg |
| CC1=C(C(=O)OCCN(C)C/C=C/c2ccc(Cc3cccnc3)cc2)C(c2cccc([N+](=O)[O-])c2)C(C(=O)OC(C)C)=C(C)N1 (stereo not shown) [compound 7] | 52.8% | – | – | 36.4% | – | – | – | ≥ 30 mg/kg |
| CC1=C(C(=O)OCCNC/C(C)=C/c2ccc(Cc3cccnc3)cc2)C(c2cccc([N+](=O)[O-])c2)C(C(=O)OC(C)C)=C(C)N1 (stereo not shown) [compound 8] | 64.9% | – | – | 47.9% | – | – | – | ≥ 30 mg/kg |
| CCOC(=O)C1=C(C)NC(C)=C(C(=O)OCCN(C)C/C(C)=C/c2ccc(Oc3cccnc3)cc2)C1c1cccc([N+](=O)[O-])c1 (stereo not shown) [compound 10] | – | – | – | 79.2% | 641 | – | – | ≥ 30 mg/kg |
